“And” between values parts separate entries of the source, which are not always exact repeats. Equal values may be shown once. Toxic doses and inconclusive results are not listed. How the source made its calls: active means survival T/C of 150% or more; inactive means T/C below 125% in these data. Peptide text beside a SMILES is read from it. * marks the point of attachment. Cbz = O=C(OCc1ccccc1)*; Boc = CC(C)(C)OC(=O)*; CH2Cl = ClC*; NHNH2 = NN*
Test system: BDF1 mice, B16 melanoma ip, median survival T/C
Experiment: NCI In Vivo Anticancer Drug Screen. Data for tumor model B16 Melanoma (intraperitoneal) in B6D2F1 (BDF1) mice
Details: endpoint: median survival time, higher = longer survival
Procedure, shortened: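 Vehicle-treated animals serve as the reference (C); treated animals (T) are scored for survival or tumor size after tumor transplantation.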

[1] = dose: 100.0 mg/kg/injection, schedule: Q01DX009 (ip), vehicle: Klucel (hydroxypropylcellulose) (HPC)
[2] = dose: 200.0 mg/kg/injection, schedule: Q01DX009 (ip), vehicle: Klucel (hydroxypropylcellulose) (HPC)
[3] = dose: 400.0 mg/kg/injection, schedule: Q01DX009 (ip), vehicle: Klucel (hydroxypropylcellulose) (HPC)
[4] = dose: 12.5 mg/kg/injection, schedule: Q01DX009 (ip), vehicle: saline with Tween-80
[5] = dose: 25.0 mg/kg/injection, schedule: Q01DX009 (ip), vehicle: saline with Tween-80
[6] = dose: 50.0 mg/kg/injection, schedule: Q01DX009 (ip), vehicle: saline with Tween-80
[7] = dose: 100.0 mg/kg/injection, schedule: Q01DX009 (ip), vehicle: saline with Tween-80
[8] = dose: 25.0 mg/kg/injection, schedule: Q01DX009 (ip), vehicle: gum acacia
[9] = dose: 12.5 mg/kg/injection, schedule: Q01DX009 (ip), vehicle: saline
[10] = dose: 25.0 mg/kg/injection, schedule: Q01DX009 (ip), vehicle: saline
[11] = dose: 50.0 mg/kg/injection, schedule: Q01DX009 (ip), vehicle: saline
[12] = dose: 100.0 mg/kg/injection, schedule: Q04DX003 (ip), vehicle: saline with Tween-80
[13] = dose: 200.0 mg/kg/injection, schedule: Q04DX003 (ip), vehicle: saline with Tween-80
[14] = dose: 1.56 mg/kg/injection, schedule: Q01DX009 (ip), vehicle: saline
[15] = dose: 3.12 mg/kg/injection, schedule: Q01DX009 (ip), vehicle: saline
[16] = dose: 6.25 mg/kg/injection, schedule: Q01DX009 (ip), vehicle: saline

Measured: T/C

Nc1ccccc1S(=O)(=O)Nc1ccccc1
inactive: [1] 96 % of control | [2] 107 % of control | [3] 110 % of control

Oc1cc2ccccc2c(-c2c(O)c(O)cc3ccccc23)c1O
inactive: [4] 114 % of control | [5] 117 % of control | [6] 117 % of control | [7] 110 % of control

CCCCCCCCCCCCCCCCCCNC(=O)Nc1cc(C)ccc1C
inactive: [8] 100 % of control | dose: 50.0 mg/kg/injection, schedule: Q01DX009 (ip), vehicle: gum acacia 93 % of control | dose: 100.0 mg/kg/injection, schedule: Q01DX009 (ip), vehicle: gum acacia 107 % of control

OCc1ccccc1
inactive: [7] 94 % of control | dose: 200.0 mg/kg/injection, schedule: Q01DX009 (ip), vehicle: saline with Tween-80 100 % of control | dose: 400.0 mg/kg/injection, schedule: Q01DX009 (ip), vehicle: saline with Tween-80 108 % of control

CC(C)CC(NC(=O)CCl)C(=O)O (stereo not drawn)
inactive: dose: 6.25 mg/kg/injection, schedule: Q01DX009 (ip), vehicle: saline with Tween-80 110 % of control | [4] 95 % of control | [5] 95 % of control

O=C(COc1ccc(Cl)cc1Cl)Nc1ccc(F)cc1
inactive: [5] 110 % of control | [6] 91 % of control | [7] 86 % of control

CCCCCC(=O)c1ccc(O)cc1O
inactive: dose: 12.5 mg/kg/injection, schedule: Q01DX009 (ip), vehicle: gum acacia 102 % of control | [8] 89 % of control

CN(CCOc1ccccc1O)CCOc1ccccc1O
inactive: [1] 111 % of control | [2] 105 % of control

Nc1nc(SCc2ccccc2Cl)c2ncn(C3OC(CO)C(O)C3O)c2n1 (stereo not drawn)
inactive: dose: 50.0 mg/kg/injection, schedule: Q01DX009 (ip), vehicle: Klucel (hydroxypropylcellulose) (HPC) 89 % of control | [6] 88 % of control

CCSCCNC(=O)[C@@]1(O)[C@H](O)[C@]2(CC)C=CCN3CC[C@@]4(c5cc([C@@]6(OC(C)=O)C[C@H]7C=C(CC)CN(CCc8c6[nH]c6ccccc86)C7)c(OC)cc5N(C)[C@@H]14)[C@@H]32
inactive: dose: 0.13 mg/kg/injection, schedule: Q01DX009 (ip), vehicle: water 100 % of control | dose: 0.25 mg/kg/injection, schedule: Q01DX009 (ip), vehicle: water 115 % of control | dose: 0.5 mg/kg/injection, schedule: Q01DX009 (ip), vehicle: water 120 % of control
active: dose: 1.0 mg/kg/injection, schedule: Q01DX009 (ip), vehicle: water 155 % of control | dose: 2.0 mg/kg/injection, schedule: Q01DX009 (ip), vehicle: water 162 % of control

Cc1c(CCl)c(C)c(CCl)c(C)c1CCl
inactive: dose: 3.0 mg/kg/injection, schedule: Q01DX009 (ip), vehicle: Klucel (hydroxypropylcellulose) (HPC) 102 % of control | dose: 6.0 mg/kg/injection, schedule: Q01DX009 (ip), vehicle: Klucel (hydroxypropylcellulose) (HPC) 100 % of control | dose: 12.0 mg/kg/injection, schedule: Q01DX009 (ip), vehicle: Klucel (hydroxypropylcellulose) (HPC) 100 % of control

O=C(O)c1c(-c2ccccc2)[nH]c2cc(Cl)ccc2c1=O
inactive: [9] 100 % of control | [10] 102 % of control | [11] 102 % of control | [12] 109 % of control | dose: 200.0 mg/kg/injection, schedule: Q01DX005 (ip), vehicle: saline 95 % of control | [13] 102 % of control

CC(C)CC(NC(=O)C(Cc1c[nH]c2ccccc12)NC(=O)OC(C)(C)C)C(=O)NN (stereo not drawn) (Boc-Trp-Leu-NHNH2; configuration not given here)
inactive: [10] 88 % of control | [11] 98 % of control | dose: 100.0 mg/kg/injection, schedule: Q01DX009 (ip), vehicle: saline 88 % of control | dose: 200.0 mg/kg/injection, schedule: Q01DX009 (ip), vehicle: saline 87 % of control

Cc1cccc(C)c1NC(=O)C(Cl)c1ccccc1 (stereo not drawn)
inactive: [1] 103 % of control | [2] 93 % of control | [3] 100 % of control

COc1ccc2nc3cc(Cl)ccc3c(NC(C)CCCN(CCCl)CCCl)c2c1 (stereo not drawn)
inactive: dose: 0.12 mg/kg/injection, schedule: Q01DX009 (ip), vehicle: saline 114 % of control | dose: 0.25 mg/kg/injection, schedule: Q01DX009 (ip), vehicle: saline 105 % of control | dose: 0.5 mg/kg/injection, schedule: Q01DX009 (ip), vehicle: saline 105 % of control | dose: 0.62 mg/kg/injection, schedule: Q04DX003 (ip), vehicle: saline with Tween-80 110 % of control | dose: 1.25 mg/kg/injection, schedule: Q04DX003 (ip), vehicle: saline with Tween-80 110 % of control

CCCCN=[N+]=[N-]
inactive: dose: 25.0 mg/kg/injection, schedule: Q01DX009 (ip), vehicle: water 104 % of control | dose: 50.0 mg/kg/injection, schedule: Q01DX009 (ip), vehicle: water 98 % of control | dose: 100.0 mg/kg/injection, schedule: Q01DX009 (ip), vehicle: water 100 % of control | dose: 200.0 mg/kg/injection, schedule: Q01DX009 (ip), vehicle: water 98 % of control

[Cl][Ni][Cl].[NH-]CCN1CC1.[NH-]CCN1CC1
inactive: dose: 0.78 mg/kg/injection, schedule: Q01DX009 (ip), vehicle: saline 98 % of control | [14] 97 % of control | [15] 90 % of control

O=C(O)C1=CCC=CC1
inactive: [12] 100 % of control | [13] 103 % of control | dose: 400.0 mg/kg/injection, schedule: Q04DX003 (ip), vehicle: saline with Tween-80 96 % of control

O=C(O)C1(C(=O)O)CCC1.[NH2-].[NH2-].[Pt+2]
inactive: dose: 2.0 mg/kg/injection, schedule: Q01DX009 (ip), vehicle: saline 112 % of control | dose: 4.0 mg/kg/injection, schedule: Q01DX009 (ip), vehicle: saline 115 % of control | dose: 6.25 mg/kg/injection, schedule: Q01DX009 (ip), vehicle: other 123 % of control
active: dose: 8.0 mg/kg/injection, schedule: Q01DX009 (ip), vehicle: saline 150 % of control | dose: 12.5 mg/kg/injection, schedule: Q01DX009 (ip), vehicle: other 176 % of control | dose: 16.0 mg/kg/injection, schedule: Q01DX009 (ip), vehicle: saline 176 % of control | dose: 25.0 mg/kg/injection, schedule: Q01DX009 (ip), vehicle: other 160 % of control and 164 % of control | dose: 32.0 mg/kg/injection, schedule: Q01DX009 (ip), vehicle: saline 176 % of control

CC(C)(C)C(=O)C1C(=O)c2ccccc2C1=O
inactive: dose: 0.06 mg/kg/injection, schedule: Q01DX009 (ip), vehicle: Klucel (hydroxypropylcellulose) (HPC) 94 % of control | dose: 0.12 mg/kg/injection, schedule: Q01DX009 (ip), vehicle: Klucel (hydroxypropylcellulose) (HPC) 97 % of control | dose: 0.25 mg/kg/injection, schedule: Q01DX009 (ip), vehicle: Klucel (hydroxypropylcellulose) (HPC) 100 % of control and 108 % of control

Nc1ccc(OCc2ccccc2)cc1
inactive: [5] 109 % of control

CC(C)CC(NC(=O)OCc1ccccc1)C(=O)NC(Cc1ccccc1)C(=O)CCl (stereo not drawn) (Cbz-Leu-Phe-CH2Cl; configuration not given here)
inactive: [14] 99 % of control | [15] 99 % of control | [16] 97 % of control

COc1c2c(cc3c1OCO3)CCN(C)C2
inactive: dose: 10.0 mg/kg/injection, schedule: Q01DX009 (ip), vehicle: saline 95 % of control | dose: 20.0 mg/kg/injection, schedule: Q01DX009 (ip), vehicle: saline 99 % of control | dose: 40.0 mg/kg/injection, schedule: Q01DX009 (ip), vehicle: saline 100 % of control | dose: 80.0 mg/kg/injection, schedule: Q01DX009 (ip), vehicle: saline 91 % of control

[Cl][Pt+2][Cl].[NH-]CCO.[NH-]CCO
inactive: dose: 3.13 mg/kg/injection, schedule: Q01DX009 (ip), vehicle: saline 100 % of control | [16] 104 % of control | [9] 104 % of control

Source: PubChem BioAssay AID192 (DTP/NCI, 2004)
